Laboratory results reported in patent US12227520B2 (priority 2019, dated 2025).
pEC50: −log10 of the molar value. Like-named read-outs stand apart in the source and are kept apart here.

Tests used:
HIV-1 (IIIB) = assay: Antiviral assay in MT-4 cells (HIV MT-4 antiviral assay); assay type: cell-based; details: Human immunodeficiency virus 1, IIIB, MT4, 120 h, HIV-1 (IIIB) in MT-4 cells, 5 days incubation
Procedure, shortened: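 MT-4 cells infected with HIV-1 IIIB (1:250 diluted stock) and exposed to 1:3 serially diluted compound in RPMI with 10% FBS. Viability read by CellTiter-Glo luminescence after 5 days at 37° C; mock-infected cells and 5 μM AZT as controls.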

[1] = Cytotoxicity assay in MT-4 cells; assay type: cell-based, human; details: human, uninfected MT-4 cells, 5 days incubation; read-out: CC50
Procedure, shortened: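 Infected MT-4 cells (HIV-1 IIIB, fresh 1:250 dilution of concentrated stock) or mock-infected cells exposed to compounds for 5 days at 37 °C. Viability by CellTiter-Glo luminescence; 5 μM AZT positive control, no-drug negative control. Uninfected cells used for cytotoxicity, with 10 μM puromycin as base-level cytotoxicity control.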

pLai RLuc reporter virus = assay: microbe, parasite or virus in culture; assay type: cell-based, HIV; details: Human immunodeficiency virus 1, 72 h
Procedure, shortened: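 MT-4 cells pre-infected 2 h at 37 °C with pLai RLuc virus, then exposed to 1:3 serial dilutions of compound in RPMI/10% FBS with or without 50% human serum for 72 h at 37 °C. Renilla luminescence read-out; serum shift = EC50(HS/CCM)/EC50(CCM).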

[2] = read-out: Antiviral Serum Shift RLuc 50% HS, HS/CCM (RPMI media, 10% FBS, 50% HS, 1% P/S), 72-h incubation
[3] = read-out: Antiviral Serum Shift RLuc CCM, CCM (RPMI media, 10% FBS, 1% P/S), 72-h incubation

SMILES | pEC50 (HIV-1 (IIIB)) | CC50 at 5 days [1] [nM] | pEC50 (pLai RLuc reporter virus; [2]) | pEC50 (pLai RLuc reporter virus; [3]) | pEC50 (HIV-1 (IIIB); read-out: EC50)
C[C@H]1CCCN2CC1n1cc(C(=O)NCc3c(F)cc(F)cc3F)c(=O)c(O)c1C2=O (stereo partly drawn) [Example 190, (6S)-12-hydroxy-6-methyl-1,11-dioxo-N-(2,4,6-trifluorobenzyl)-1,4,5,6,7,11-hexahydro-3H-2,7-methanopyrido[1,2-a][1,4]diazonine-10-carboxamide] | 8.74 | 22800 | 7.85 | 9.36 | 
C[C@]1(F)CCCN2C[C@H]1n1cc(C(=O)NCc3c(F)cc(F)cc3F)c(=O)c(O)c1C2=O [Example 179, (6S,7R)-6-fluoro-12-hydroxy-6-methyl-1,11-dioxo-N-(2,4,6-trifluorobenzyl)-1,4,5,6,7,11-hexahydro-3H-2,7-methanopyrido[1,2-a][1,4]diazonine-10-carboxamide] |  | 13100 | 9.10 | 9.47 | 8.83
C[C@H]1OC[C@H](C)N2C[C@H]1n1cc(C(=O)NCc3c(F)cc(F)cc3F)c(=O)c(O)c1C2=O [Example 195, (3S,6R,7R)-12-hydroxy-3,6-dimethyl-1,11-dioxo-N-(2,4,6-trifluorobenzyl)-1,3,4,6,7,11-hexahydro-2,7-methanopyrido[1,2-d][1,4,7]oxadiazonine-10-carboxamide] |  | 16700 | 7.98 | 9.36 | 8.76
C[C@@H]1CC[C@H]2CN(C1)C(=O)c1c(O)c(=O)c(C(=O)NCc3c(F)cc(F)cc3F)cn12 [Example 137-2, (4R,7S)-12-hydroxy-4-methyl-1,11-dioxo-N-(2,4,6-trifluorobenzyl)-1,4,5,6,7,11-hexahydro-3H-2,7-methanopyrido[1,2-a][1,4]diazonine-10-carboxamide] |  | 20700 | 9.09 | 9.74 | 8.69
O=C(NCc1c(F)cc(F)cc1F)c1cn2c(c(O)c1=O)C(=O)N1CCCC[C@H]2C1 [Example 26-2, (7S)-12-hydroxy-1,11-dioxo-N-(2,4,6-trifluorobenzyl)-1,4,5,6,7,11-hexahydro-3H-2,7-methanopyrido[1,2-a][1,4]diazonine-10-carboxamide] |  | 14400 | 8.64 | 9.45 | 8.88
O=C(NCc1ccc(F)cc1F)c1cn2c(c(O)c1=O)C(=O)N1CCCC3(CC3)[C@@H]2C1 [Example 57-2, (7′R)—N-(2,4-difluorobenzyl)-12′-hydroxy-1′,11′-dioxo-1′,4′,5′,11′-tetrahydro-3′H,7′H-spiro[cyclopropane-1,6′-[2,7]methanopyrido[1,2-a][1,4]diazonine]-10′-carboxamide] |  | 8910 | 6.88 | 9.40 | 8.75
O=C(NCc1c(F)cc(F)cc1F)c1cn2c(c(O)c1=O)C(=O)N1C[C@@H]2CCC(F)(F)C1 [Example 3-2, (7S)-4,4-difluoro-12-hydroxy-1,11-dioxo-N-(2,4,6-trifluorobenzyl)-1,4,5,6,7,11-hexahydro-3H-2,7-methanopyrido[1,2-a][1,4]diazonine-10-carboxamide] |  | > 43300 | 8.41 | 8.80 | 8.27
O=C(NCc1ccc(F)cc1F)c1cn2c(c(O)c1=O)C(=O)N1CCCOC[C@@H]2C1 [Example 1-1, (S)-N-(2,4-difluorobenzyl)-13-hydroxy-1,12-dioxo-1,4,5,7,8,12-hexahydro-3H-2,8-methanopyrido[1,2-d][1,4,7]oxadiazecine-11-carboxamide] |  | > 50000 | 8.31 | 8.44 | 7.78
CC(C)N1CCN2CC(C1)n1cc(C(=O)NCc3ccc(F)cc3F)c(=O)c(O)c1C2=O (stereo not shown) [Example 34, N-(2,4-difluorobenzyl)-12-hydroxy-5-isopropyl-1,11-dioxo-1,4,5,6,7,11-hexahydro-3H-2,7-methanopyrido[1,2-a][1,4,7]triazonine-10-carboxamide] |  | 16400 | 8.02 | 8.69 | 8.48
C[C@@H]1C=C[C@H](C)N2C[C@H]1n1cc(C(=O)NCc3ccc(F)cc3F)c(=O)c(O)c1C2=O [Example 177, (3S,6R,7S)—N-(2,4-difluorobenzyl)-12-hydroxy-3,6-dimethyl-1,11-dioxo-1,6,7,11-tetrahydro-3H-2,7-methanopyrido[1,2-a][1,4]diazonine-10-carboxamide] |  | 8540 | 7.96 | 9.53 | 9.04
